Experimental data: patent US6962911B2, “Pyrrolopyrimidinone derivatives, process of preparation and use” (SK Chemicals Co., Ltd., priority 2000, dated 2005)
Structures can show the parent of a compound that is named as a salt. Where two headings read alike, the source gives them in different places.

Columns and labels:
cGMP PDE V = cGMP PDE V (Homo sapiens, UniProt O76074); experiment: cyclic nucleotide PDE V activity, PDE SPA assay kit, inhibition study; type: biochemical
Method: The cyclic nucleotide PDE V activity was determined using PDE SPA assay kit (Amersham Pharmacia biotech, UK). Each reaction mixture (100 μL total volume) consisted of the column elute containing PDE V (10 μL), [^3H]-cGMP (5 μCi/mL), bovine serum albumin (0.5 mg/mL), and MgCl2 (5 mM) in Tris-HCl buffer (15 mM, pH 7.5). The reactions were initiated by the addition of PDE V and the samples were incubated at 30° C. for 30 min, after which the reaction was stopped by the addition of 50 μL of SPA beads. The reaction tube was then settled for 20 min and was counted on the scintillation counter (Tri-carb 1500, Packard, USA). For the inhibition study of PDE V activity, the sildenafil and test compounds were dissolved in dimethyl sulfoxide (DMSO) and was diluted with distilled water. The final concentration of DMSO was less than 0.2% (v/v).
The following table illustrate the in vitro activities for a range of the compounds of the invention as inhibitors of cGMP PDE V.

[1] = in vitro inhibition of cGMP PDE V, [3H]-cGMP, 30° C., 30 min, read-out: IC50

| Compound | IC50 (cGMP PDE V; [1]) [nM] | melting point | IC50 (cGMP PDE V) [nM] |
| --- | --- | --- | --- |
| CCCc1cn(C)c2c(=O)[nH]c(-c3cc(S(=O)(=O)N4CCN(CCCF)CC4)ccc3OCC)nc12 [Example 19, 5-(2-ethoxy-5-(4-(3-fluoropropyl)piperazinylsulfonyl)phenyl)-1-methyl-3-n-propyl-1,6-dihydro-7H-pyrrolo[4,3-d]pyrimidin-7-one sulfuric acid] | 0.64 |  |  |
| CCCc1cn(C)c2c(=O)[nH]c(-c3cc(S(=O)(=O)N4CCN(CCCl)CC4)ccc3OCC)nc12 [Example 33, 5-(5-(4-(2-chloroethyl)piperazinylsulfonyl)-2-ethoxyphenyl)-1-methyl-3-n-propyl-1,6-dihydro-7H-pyrrolo[4,3-d]pyrimidin-7-one] |  | 226 °C (dec.) | 2.06 |
| CCCc1cn(C)c2c(=O)[nH]c(-c3cc(S(=O)(=O)N4CCN(CCCCl)CC4)ccc3OCC)nc12 [Example 35, 5-(5-(4-(3-chloropropyl)piperazinylsulfonyl)-2-ethoxyphenyl)-1-methyl-3-n-propyl-1,6-dihydro-7H-pyrrolo[4,3-d]pyrimidin-7-one hydrochloride] | 0.49 |  |  |
| CCCOc1ccc(S(=O)(=O)N2CCC(C(=O)O)CC2)cc1-c1nc2c(CCC)cn(C)c2c(=O)[nH]1 [Example 105] | 0.71 | 155 to 155.5 °C |  |
| CCCc1cn(C)c2c(=O)[nH]c(-c3cc(S(=O)(=O)N4CCC(CC(=O)O)CC4)ccc3OCC)nc12 [Example 106, 5-(2-ethoxy-5-(4-(hydroxycarbonylmethyl)piperidinylsulfonyl)phenyl)-1-methyl-3-n-propyl-1,6-dihydro-7H-pyrrolo[4,3-d]pyrimidin-7-one] | 0.27 | 138.5 to 139.5 °C |  |
| CCCc1cn(C)c2c(=O)[nH]c(-c3cc(S(=O)(=O)N4CCN(Cc5nnn[nH]5)CC4)ccc3OCC)nc12 [Example 116] | 0.28 | 188 °C (dec.) |  |
| CCCOc1ccc(S(=O)(=O)N2CCN(Cc3nnn[nH]3)CC2)cc1-c1nc2c(CCC)cn(C)c2c(=O)[nH]1 [Example 117, 5-(2-n-propoxy-5-(4-(1H-tetrazol-5-ylmethyl)piperazinylsulfonyl)phenyl)-1-methyl-3-n-propyl-1,6-dihydro-7H-pyrrolo[4,3-d]pyrimidin-7-one] | 0.7 | 150 °C (dec.) |  |
